Data from patent US8642801B2 (BHI Limited Partnership, priority 2003, dated 2014).

Target: T1, Aβ40 and Aβ42 peptides in plasma and brain of TgCRND8 mice (Homo sapiens, UniProt P05067)
T1 construct: ELISA using Human Aβ40 and Aβ42 Fluorometric ELISA kits from Biosource; from tissue; host or cells: plasma and brain homogenate of TgCRND8 transgenic mice (hAPP transgene)
Assay: Short term treatment in adult transgenic CRND8 mice overexpressing βAPP: Aβ levels in plasma and brain by ELISA
Format: in vivo, Mouse
Conditions: for Brain homogenate Aβ40 Change Insoluble / Brain homogenate Aβ40 Change Soluble / Brain homogenate Aβ42 Change Soluble / Brain homogenate Aβ42 Change Insoluble / Plasma Aβ40 Change / Plasma Aβ42 Change: TgCRND8 mice
From the text: Transgenic mice, […]8, expressing the human amyloid precursor protein (hAPP) develop a pathology resembling Alzheimer's disease. In particular, high levels of Aβ40 and Aβ 42 have been documented in the plasma and the brain of these animals at 8-9 weeks of age, followed by early accumulation of amyloid plaques similar to the senile plaques observed in AD patients. These animals also display progressive cognitive deficits that parallel the appearance of degenerative changes. See, […], et al., J. Biol. Chem. 276, 21562-70 (2001). The short term therapeutic effect of 19 compounds of the invention was studied. […] The following abbreviations are used to designate these animals from the 3rd and 4th generation backcross in the present protocol: TgCRND8-2.B6C3F1(N3); TgCRND8-2.B6C3F1(N4). Baseline animals (Group 1) consisted of naive TgCRND8-2. B6C3F1(N3) at 11±1 weeks of age. These mice were used to determine the Aβ levels in the plasma and brain of naive transgenic animals at the initiation of treatment. […] At the end of the treatment periods, plasma and perfused brains were collected for quantification of Aβ levels. […] Plasma samples were immediately frozen and stored at -80° C. pending analysis. The brains were removed, frozen, and stored at -80° C. awaiting analysis. […] Samples were spun at 15000 g for 20 minutes and the supernatants were transferred to fresh tubes. […] The tubes were vortexed for 30 seconds and frozen at -80° C. […] Samples were thawed at room temperature, sonicated at 80° C. for 15 minutes and frozen again. This cycle was repeated 3 times to ensure homogeneity and samples were returned to -80° C. pending analysis. Aβ levels were evaluated in plasma and brain samples by ELISA using Human Aβ40 and Aβ42 Fluorometric ELISA kits from Biosource (Cat. […] In short, samples were thawed at room temperature, sonicated for 5 minutes at 80° C. (sonication for brain homogenates; no sonication for plasma samples) and kept on ice. Aβ peptides were captured using 100 μl of the diluted samples to the plate and incubated without shaking at 4° C. overnight. The samples were aspirated and the wells were rinsed 4 times with wash buffer obtained from the Biosource ELISA kit. The anti-Aβ40 or anti-Aβ42 rabbit polyclonal antiserum (specific for the Aβ40 or Aβ42 peptide) was added (100 μl) and the plate was incubated at room temperature for 2 hours with shaking. The wells were aspirated and washed 4 times before adding 100 μl of the alkaline phosphatase labeled anti-rabbit antibody and incubating at room temperature for 2 hours with shaking. The plates were then rinsed 5 times and the fluorescent substrate (100 μl) was added to the plate. The plate was incubated for 35 minutes at room temperature and the plate was read using a titer plate reader at an excitation wavelength of 460 nm and emission at 560 nm Compounds were scored based on their ability to modulate levels of Aβ peptides in the plasma and the cerebral soluble/insoluble levels in the brain. Levels of Aβ observed in the plasma and brain of treated animals were normalized using values from vehicle-treated (water) or methylcellulose-treated control groups and ranked according to the strength of the pharmacological effect. Increases in the levels of Aβ peptides are indicated using “+” symbols, while decreases in the levels of Aβ peptides are indicated using “-” symbols. The strongest effects are recorded as “+++” or “- - -” while the weakest are shown as “+” or “-”.

[1] = Brain Homogenate Vehicle Group, Day 14, 250 mg/kg daily
[2] = Brain Homogenate Vehicle Group, Day 28, 250 mg/kg daily
[3] = Plasma Vehicle Group, Day 14, 250 mg/kg daily subcutaneous, normalized to water vehicle control
[4] = Brain Homogenate Vehicle Group, Day 28, total levels, soluble and insoluble not measured independently, 250 mg/kg daily
[5] = Plasma Vehicle Group, Day 28, 250 mg/kg daily subcutaneous, normalized to water vehicle control
[6] = Brain Homogenate Methylcellulose Group, Day 14, 250 mg/kg daily oral
[7] = Brain Homogenate Methylcellulose Group, Day 28, 250 mg/kg daily oral

Compound	Brain homogenate Aβ40 Change Insoluble [1]	Brain homogenate Aβ42 Change Soluble [1]	Brain homogenate Aβ40 Change Insoluble [2]	Brain homogenate Aβ40 Change Soluble [2]	Brain homogenate Aβ42 Change Insoluble [2]	Brain homogenate Aβ42 Change Insoluble [1]	Brain homogenate Aβ42 Change Soluble [2]	also measured
O=S(=O)(O)CCCNC1CC2CCC1C2 (centres unmarked) [BY, 3-(2-norbornyl)amino-1-propanesulfonic acid]	+++ (increases of 70% or higher are scored as “+ + +”)	+++ (increases of 70% or higher are scored as “+ + +”)	+++ (increases of 70% or higher are scored as “+ + +”)	+ (increases in the levels of Aβ (relative to untreated control) of 20 to 39% are scored as “+”)	+++ (increases of 70% or higher are scored as “+ + +”)			Brain homogenate Aβ40 Change Soluble [1]: +++ (increases of 70% or higher are scored as “+ + +”); Plasma Aβ40 Change [3]: + (increases in the levels of Aβ (relative to untreated control) of 20 to 39% are scored as “+”); Plasma Aβ42 Change [3]: + (increases in the levels of Aβ (relative to untreated control) of 20 to 39% are scored as “+”)
C#CC1(NCCCS(=O)(=O)O)CCCCC1 [DX, 3-(1-ethynylcyclohexyl)amino-1-propanesulfonic acid]	−− (decreases of 20 to 38% are scored as “− −”)		−− (decreases of 20 to 38% are scored as “− −”)		−− (decreases of 20 to 38% are scored as “− −”)	− (Decreases in the levels of Aβ of 5 to 19% are scored as “−”)	− (Decreases in the levels of Aβ of 5 to 19% are scored as “−”)	
COc1ccc([C@H](C)NCCCS(=O)(=O)O)cc1 [DZ, 3-[(S)-1-(4-methoxyphenyl)ethyl]amino-1-propanesulfonic acid]			−− (decreases of 20 to 38% are scored as “− −”)	− (Decreases in the levels of Aβ of 5 to 19% are scored as “−”)	−− (decreases of 20 to 38% are scored as “− −”)	−− (decreases of 20 to 38% are scored as “− −”)	−− (decreases of 20 to 38% are scored as “− −”)	
COCC(NCCCS(=O)(=O)O)[C@@H](O)c1ccccc1 (stereo in doubt) [EG, 3-[(1R,2S)-2-hydroxy-1-(methoxymethyl)-2-phenylethyl]amino-1-propanesulfonic acid]	−− (decreases of 20 to 38% are scored as “− −”)	−− (decreases of 20 to 38% are scored as “− −”)	−− (decreases of 20 to 38% are scored as “− −”)		−− (decreases of 20 to 38% are scored as “− −”)	−− (decreases of 20 to 38% are scored as “− −”)		Brain homogenate Aβ40 Change Soluble [1]: − (Decreases in the levels of Aβ of 5 to 19% are scored as “−”)
CCNCCCS(=O)(=O)O [CV, 3-ethylamino-1-propanesulfonic acid]								Brain homogenate Aβ40 Change, total level (Brain Homogenate Vehicle Group, Day 14, total levels, soluble and insoluble not measured independently, 250 mg/kg daily): − (Decreases in the levels of Aβ of 5 to 19% are scored as “−”); Brain homogenate Aβ40 Change, total level [4]: ++ (increases of 40 to 69% are scored as “++”); Brain homogenate Aβ42 Change, total level [4]: +++ (increases of 70% or higher are scored as “+ + +”); Plasma Aβ40 Change [3]: + (increases in the levels of Aβ (relative to untreated control) of 20 to 39% are scored as “+”); Plasma Aβ42 Change [3]: ++ (increases of 40 to 69% are scored as “++”); Plasma Aβ40 Change [5]: ++ (increases of 40 to 69% are scored as “++”); Plasma Aβ42 Change [5]: ++ (increases of 40 to 69% are scored as “++”)
O=S(=O)(O)CC(O)CNC1CCCCC1 (centres unmarked) [DC]	−− (decreases of 20 to 38% are scored as “− −”)	+ (increases in the levels of Aβ (relative to untreated control) of 20 to 39% are scored as “+”)	+ (increases in the levels of Aβ (relative to untreated control) of 20 to 39% are scored as “+”)	− (Decreases in the levels of Aβ of 5 to 19% are scored as “−”)	+++ (increases of 70% or higher are scored as “+ + +”)	−− (decreases of 20 to 38% are scored as “− −”)	++ (increases of 40 to 69% are scored as “++”)	Plasma Aβ40 Change [3]: ++ (increases of 40 to 69% are scored as “++”); Plasma Aβ42 Change [3]: ++ (increases of 40 to 69% are scored as “++”); Plasma Aβ40 Change [5]: ++ (increases of 40 to 69% are scored as “++”)
CCC(CC)NCCCS(=O)(=O)O [DD, 3-(3-pentyl)amino-1-propanesulfonic acid]	− (Decreases in the levels of Aβ of 5 to 19% are scored as “−”)		− (Decreases in the levels of Aβ of 5 to 19% are scored as “−”)					
O=S(=O)(O)CCCNCC(O)c1ccccc1 (centres unmarked) [DY]	−− (decreases of 20 to 38% are scored as “− −”)		−−− (decreases of 39% or more are scored as “− − −”)		−− (decreases of 20 to 38% are scored as “− −”)	−− (decreases of 20 to 38% are scored as “− −”)	− (Decreases in the levels of Aβ of 5 to 19% are scored as “−”)	
CC12CC3CC(C)(C1)CC(NCCCS(=O)(=O)O)(C3)C2 [CY]								Brain homogenate Aβ40 Change Soluble [6]: − (Decreases in the levels of Aβ of 5 to 19% are scored as “−”); Brain homogenate Aβ42 Change Insoluble [6]: ++ (increases of 40 to 69% are scored as “++”); Brain homogenate Aβ42 Change Soluble [6]: +++ (increases of 70% or higher are scored as “+ + +”); Brain homogenate Aβ40 Change Insoluble [7]: +++ (increases of 70% or higher are scored as “+ + +”); Brain homogenate Aβ40 Change Soluble [7]: ++ (increases of 40 to 69% are scored as “++”); Brain homogenate Aβ42 Change Insoluble [7]: + (increases in the levels of Aβ (relative to untreated control) of 20 to 39% are scored as “+”); Brain homogenate Aβ42 Change Soluble [7]: +++ (increases of 70% or higher are scored as “+ + +”); Plasma Aβ42 Change (Plasma Methylcellulose Group, Day 28, 250 mg/kg daily oral in 1% methylcellulose, normalized to methylcellulose control): + (increases in the levels of Aβ (relative to untreated control) of 20 to 39% are scored as “+”)
CC(C)(NCCCS(=O)(=O)O)c1ccccc1 [DM, 3-cumylamino-1-propanesulfonic acid]	+ (increases in the levels of Aβ (relative to untreated control) of 20 to 39% are scored as “+”)	− (Decreases in the levels of Aβ of 5 to 19% are scored as “−”)	−− (decreases of 20 to 38% are scored as “− −”)	− (Decreases in the levels of Aβ of 5 to 19% are scored as “−”)	−− (decreases of 20 to 38% are scored as “− −”)	− (Decreases in the levels of Aβ of 5 to 19% are scored as “−”)	−− (decreases of 20 to 38% are scored as “− −”)	
CC(C)(CO)NCCCS(=O)(=O)O [DH, 3-(1,1-dimethyl-2-hydroxyethyl)amino-1-propanesulfonic acid]	−− (decreases of 20 to 38% are scored as “− −”)	−−− (decreases of 39% or more are scored as “− − −”)	− (Decreases in the levels of Aβ of 5 to 19% are scored as “−”)		− (Decreases in the levels of Aβ of 5 to 19% are scored as “−”)	−−− (decreases of 39% or more are scored as “− − −”)		
